Experimental data published in ChEMBL document CHEMBL1201862, “PubChem BioAssay data set” (2004).
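Five concentrations, 48 hours, 96-well plates. At the GI50, growth is halved.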 Calls of active or inactive are those of the source. No stated cut-off is given here; in the data, active = GI50 up to about 1.1 µM and inactive = higher.

Key:
Test in all cases: inhibition of tumour cell growth, NCI panel, 48 h
LOX IMVI = test system: LOX IMVI
RPMI-8226 = test system: RPMI-8226
HT-29 = test system: HT-29
SR = test system: SR
U-251 = test system: U-251
ACHN = test system: ACHN
NCI-H23 = test system: NCI-H23
UO-31 = test system: UO-31
HOP-92 = test system: HOP-92
Malme-3M = test system: Malme-3M
SK-MEL-5 = test system: SK-MEL-5
T47D = test system: T47D
EKVX = test system: EKVX
DU-145 = test system: DU-145
M14 = test system: M14
CCRF-CEM = test system: CCRF-CEM
TK-10 = test system: TK-10
Hs-578T = test system: Hs-578T
786-0 = test system: 786-0
OVCAR-8 = test system: OVCAR-8

COc1ccc(C2C(C)C(=O)C(C)C(c3ccc(OC)cc3)N2N=O)cc1 (stereo not given)
GI50 (LOX IMVI): 453 µM (inactive)
GI50 (RPMI-8226): > 1000 µM (inactive)
GI50 (HT-29): > 738 µM (inactive)
GI50 (SR): > 685 µM (inactive)
GI50 (U-251): 117 µM (inactive)
GI50 (ACHN): 175 µM (inactive)
GI50 (NCI-H23): 261 µM (inactive)
GI50 (UO-31): 495 µM (inactive)
GI50 (HOP-92): 53.5 µM (inactive)
GI50 (Malme-3M): > 537 µM (inactive)
GI50 (SK-MEL-5): > 575 µM (inactive)
GI50 (T47D): 127 µM (inactive)
GI50 (EKVX): > 830 µM (inactive)
GI50 (DU-145): 213 µM (inactive)
GI50 (M14): 537 µM (inactive)
GI50 (CCRF-CEM): > 700 µM (inactive)
GI50 (TK-10): 90.6 µM (inactive)
GI50 (Hs-578T): 56.5 µM (inactive)
GI50 (786-0): 84.3 µM (inactive)
GI50 (OVCAR-8): 340 µM (inactive)

C=C(C)C12CC3CC/C(=N/O)C(C1)C3(N1CCOCC1)C/C2=N/O (stereo not given)
GI50 (LOX IMVI): > 100 µM (inactive)
GI50 (RPMI-8226): > 100 µM (inactive)
GI50 (HT-29): > 100 µM (inactive)
GI50 (SR): > 100 µM (inactive)
GI50 (U-251): > 100 µM (inactive)
GI50 (ACHN): > 100 µM (inactive)
GI50 (NCI-H23): > 100 µM (inactive)
GI50 (UO-31): > 100 µM (inactive)
GI50 (HOP-92): > 100 µM (inactive)
GI50 (Malme-3M): > 100 µM (inactive)
GI50 (SK-MEL-5): > 100 µM (inactive)
GI50 (T47D): > 100 µM (inactive)
GI50 (EKVX): > 100 µM (inactive)
GI50 (DU-145): > 100 µM (inactive)
GI50 (M14): > 100 µM (inactive)
GI50 (CCRF-CEM): > 100 µM (inactive)
GI50 (TK-10): > 100 µM (inactive)
GI50 (Hs-578T): > 100 µM (inactive)
GI50 (786-0): > 100 µM (inactive)
GI50 (OVCAR-8): > 100 µM (inactive)

O=C1C=C(NCCc2ccccc2)c2ccccc2C1=O
GI50 (LOX IMVI): 1.43 µM (inactive)
GI50 (RPMI-8226): 14.8 µM (inactive)
GI50 (HT-29): 3.49 µM (inactive)
GI50 (SR): 5.94 µM (inactive)
GI50 (U-251): 4.75 µM (inactive)
GI50 (ACHN): 2.82 µM (inactive)
GI50 (NCI-H23): 2.33 µM (inactive)
GI50 (UO-31): 3.72 µM (inactive)
GI50 (HOP-92): 12.5 µM (inactive)
GI50 (Malme-3M): 1.06 µM (active)
GI50 (SK-MEL-5): 1.09 µM (active)
GI50 (T47D): 16.7 µM (inactive)
GI50 (EKVX): 5.78 µM (inactive)
GI50 (DU-145): 1.75 µM (inactive)
GI50 (M14): 1.59 µM (inactive)
GI50 (CCRF-CEM): 12.3 µM (inactive)
GI50 (TK-10): 14.2 µM (inactive)
GI50 (Hs-578T): 2.08 µM (inactive)
GI50 (786-0): 3.64 µM (inactive)
GI50 (OVCAR-8): 6.38 µM (inactive)

Nc1c(O)c(C(=O)O)cc2ccccc12
GI50 (LOX IMVI): 10.6 µM (inactive)
GI50 (RPMI-8226): 33.3 µM (inactive)
GI50 (HT-29): 17 µM (inactive)
GI50 (SR): 39.4 µM (inactive)
GI50 (U-251): 30.3 µM (inactive)
GI50 (ACHN): 25.4 µM (inactive)
GI50 (NCI-H23): 23.3 µM (inactive)
GI50 (UO-31): 47.3 µM (inactive)
GI50 (HOP-92): 35 µM (inactive)
GI50 (Malme-3M): 15.3 µM (inactive)
GI50 (SK-MEL-5): 14.7 µM (inactive)
GI50 (T47D): 37 µM (inactive)
GI50 (EKVX): 53.8 µM (inactive)
GI50 (DU-145): 17.9 µM (inactive)
GI50 (M14): 17.7 µM (inactive)
GI50 (CCRF-CEM): 37.8 µM (inactive)
GI50 (TK-10): 98.4 µM (inactive)
GI50 (Hs-578T): 37 µM (inactive)
GI50 (786-0): 19.6 µM (inactive)
GI50 (OVCAR-8): 44.3 µM (inactive)

COc1c(C(=O)/C(=N/Nc2ccc(C(=O)O)cc2)C(C)=O)c(O)cc2occc12
GI50 (LOX IMVI): > 100 µM (inactive)
GI50 (RPMI-8226): > 100 µM (inactive)
GI50 (HT-29): > 100 µM (inactive)
GI50 (SR): 68.9 µM (inactive)
GI50 (U-251): > 100 µM (inactive)
GI50 (ACHN): > 100 µM (inactive)
GI50 (NCI-H23): > 100 µM (inactive)
GI50 (UO-31): > 100 µM (inactive)
GI50 (HOP-92): 43.4 µM (inactive)
GI50 (Malme-3M): 90.8 µM (inactive)
GI50 (SK-MEL-5): 28.8 µM (inactive)
GI50 (T47D): > 100 µM (inactive)
GI50 (EKVX): > 100 µM (inactive)
GI50 (DU-145): > 100 µM (inactive)
GI50 (M14): > 100 µM (inactive)
GI50 (CCRF-CEM): > 100 µM (inactive)
GI50 (TK-10): 15.6 µM (inactive)
GI50 (Hs-578T): > 100 µM (inactive)
GI50 (786-0): > 100 µM (inactive)
GI50 (OVCAR-8): > 100 µM (inactive)

COc1c2occc2c(OC)c2c(=O)c(S(=O)(=O)NC(=O)Nc3ccc(Cl)cc3)coc12
GI50 (LOX IMVI): > 10 µM (inactive)
GI50 (RPMI-8226): > 10 µM (inactive)
GI50 (HT-29): > 10 µM (inactive)
GI50 (SR): > 10 µM (inactive)
GI50 (U-251): > 10 µM (inactive)
GI50 (ACHN): > 10 µM (inactive)
GI50 (NCI-H23): > 10 µM (inactive)
GI50 (UO-31): > 10 µM (inactive)
GI50 (HOP-92): > 10 µM (inactive)
GI50 (Malme-3M): > 10 µM (inactive)
GI50 (SK-MEL-5): > 10 µM (inactive)
GI50 (T47D): > 10 µM (inactive)
GI50 (EKVX): > 10 µM (inactive)
GI50 (DU-145): > 10 µM (inactive)
GI50 (M14): > 10 µM (inactive)
GI50 (CCRF-CEM): > 10 µM (inactive)
GI50 (TK-10): > 10 µM (inactive)
GI50 (Hs-578T): > 10 µM (inactive)
GI50 (786-0): > 10 µM (inactive)
GI50 (OVCAR-8): > 10 µM (inactive)

c1sc(NC2=NCCO2)c2c1CCCC2
GI50 (LOX IMVI): > 100 µM (inactive)
GI50 (RPMI-8226): > 100 µM (inactive)
GI50 (HT-29): > 100 µM (inactive)
GI50 (SR): > 100 µM (inactive)
GI50 (U-251): > 100 µM (inactive)
GI50 (ACHN): > 100 µM (inactive)
GI50 (NCI-H23): > 100 µM (inactive)
GI50 (UO-31): > 100 µM (inactive)
GI50 (HOP-92): > 100 µM (inactive)
GI50 (Malme-3M): > 100 µM (inactive)
GI50 (SK-MEL-5): > 100 µM (inactive)
GI50 (T47D): 88.1 µM (inactive)
GI50 (EKVX): > 100 µM (inactive)
GI50 (DU-145): > 100 µM (inactive)
GI50 (M14): > 100 µM (inactive)
GI50 (CCRF-CEM): > 100 µM (inactive)
GI50 (TK-10): > 100 µM (inactive)
GI50 (Hs-578T): > 100 µM (inactive)
GI50 (786-0): > 100 µM (inactive)
GI50 (OVCAR-8): > 100 µM (inactive)

O=C1c2ccccc2C(=O)N1C(=S)c1ccccc1
GI50 (LOX IMVI): > 100 µM (inactive)
GI50 (RPMI-8226): > 100 µM (inactive)
GI50 (HT-29): > 100 µM (inactive)
GI50 (SR): > 100 µM (inactive)
GI50 (U-251): > 100 µM (inactive)
GI50 (ACHN): > 100 µM (inactive)
GI50 (NCI-H23): > 100 µM (inactive)
GI50 (UO-31): > 100 µM (inactive)
GI50 (HOP-92): > 100 µM (inactive)
GI50 (Malme-3M): > 100 µM (inactive)
GI50 (SK-MEL-5): > 100 µM (inactive)
GI50 (T47D): > 100 µM (inactive)
GI50 (EKVX): > 100 µM (inactive)
GI50 (DU-145): > 100 µM (inactive)
GI50 (M14): > 100 µM (inactive)
GI50 (CCRF-CEM): > 100 µM (inactive)
GI50 (TK-10): > 100 µM (inactive)
GI50 (Hs-578T): > 100 µM (inactive)
GI50 (786-0): > 100 µM (inactive)
GI50 (OVCAR-8): > 100 µM (inactive)

Cc1c2cc[n+](C)c(C)c2cc2c1[nH]c1ccccc12
GI50 (LOX IMVI): 21.7 µM (inactive)
GI50 (RPMI-8226): 6.07 µM (inactive)
GI50 (HT-29): 10.6 µM (inactive)
GI50 (SR): > 26.6 µM (inactive)
GI50 (U-251): 0.69 µM (active)
GI50 (ACHN): 36.3 µM (inactive)
GI50 (NCI-H23): 2.05 µM (inactive)
GI50 (UO-31): 67.6 µM (inactive)
GI50 (HOP-92): 7.46 µM (inactive)
GI50 (Malme-3M): 2.72 µM (inactive)
GI50 (SK-MEL-5): 2.44 µM (inactive)
GI50 (T47D): 2.14 µM (inactive)
GI50 (EKVX): 5.46 µM (inactive)
GI50 (DU-145): 10.7 µM (inactive)
GI50 (M14): 25.2 µM (inactive)
GI50 (CCRF-CEM): 6.9 µM (inactive)
GI50 (TK-10): > 89.3 µM (inactive)
GI50 (Hs-578T): 0.818 µM (active)
GI50 (786-0): 0.646 µM (active)
GI50 (OVCAR-8): 2.82 µM (inactive)

CC1(C)CC2=NC(SSC3=C(C#N)C(c4ccc(Br)cc4)C4=C(O)CC(C)(C)CC4=N3)=C(C#N)C(c3ccc(Br)cc3)C2=C(O)C1 (stereo not given)
GI50 (LOX IMVI): > 100 µM (inactive)
GI50 (RPMI-8226): 67.8 µM (inactive)
GI50 (HT-29): > 100 µM (inactive)
GI50 (SR): 48.3 µM (inactive)
GI50 (U-251): > 100 µM (inactive)
GI50 (ACHN): > 100 µM (inactive)
GI50 (NCI-H23): > 100 µM (inactive)
GI50 (UO-31): > 100 µM (inactive)
GI50 (HOP-92): 70.6 µM (inactive)
GI50 (Malme-3M): > 100 µM (inactive)
GI50 (SK-MEL-5): > 100 µM (inactive)
GI50 (T47D): > 100 µM (inactive)
GI50 (EKVX): > 100 µM (inactive)
GI50 (DU-145): > 100 µM (inactive)
GI50 (M14): > 100 µM (inactive)
GI50 (CCRF-CEM): > 100 µM (inactive)
GI50 (TK-10): > 100 µM (inactive)
GI50 (Hs-578T): > 100 µM (inactive)
GI50 (786-0): > 100 µM (inactive)
GI50 (OVCAR-8): > 100 µM (inactive)
